Legend:
HRSV = settings: prophylactic use, high risk infants; cited from earlier work
[1] = tested on: genotype A, "Long" strain RSV; test: RSV-A assay (CPE, ATPlite readout in Hep-2 cells); type: cell-based; settings: human respiratory syncytial virus, HEp-2, Hep-2 cells, genotype A "Long" strain RSV, MOI 0.1; read-out: Human RSV-A (“Long” strain) EC50
How it was run: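 Protection from RSV-induced cytopathic effect, measured as ATPlite luminescence after 5 days, gave EC50 values. Assay used genotype A Long strain at MOI 0.1 on Hep-2 cells seeded at 8,000/well in DMEM growth media with 10% FBS; compounds tested as 2-fold dilutions in duplicate.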

[2] = tested on: recombinant HMPV CAN97-83 (MPV-GFP1); test: HMPV antiviral assay (MPV-GFP1 eGFP fluorescence in Vero E6 cells); type: cell-based; settings: human metapneumovirus, Vero C1008, 120 h, read-out: HMPV EC50
How it was run: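 Vero E6 cells in serum-free OptiMEM with 0.5 μg/mL TPCK-trypsin infected with eGFP-expressing HMPV CAN97-83 (MPV-GFP1) at MOI 0.05. 8-point […] ½-step dilutions from 8 or 2 μM, 0.5% DMSO, 5 days at 32 °C. eGFP fluorescence normalized to infected untreated wells; EC50 from four-parameter logistic fit.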

Compound	effective in reducing hospitalizations (HRSV) [%]	EC50 [1] [nM]	EC50 [2] [nM]
Palivizumab	60	–	–
C[C@]1(C(=O)NCCOC(N)=O)COc2c1cc([C@@](O)(CNC(=O)c1cc(OC3CC3)c3ncccc3c1)C(F)(F)F)nc2-c1ccc(F)cc1 [Example 460]	–	< 200	> 500
C[C@]1(C(N)=O)COc2c1cc([C@@](O)(CNC(=O)c1cc(OC3CC3)c3nc(N)sc3c1)C(F)(F)F)nc2-c1ccc(F)c(Cl)c1 [Example 544]	–	< 200	< 500
COc1cccc2[nH]c(C(=O)NC[C@](O)(c3cc4c(c(-c5ccc(F)cc5)n3)OC[C@]4(C)C(N)=O)C(F)(F)F)cc12 [Example 595]	–	< 200	< 500
C[C@]1(C(N)=O)COc2c1cc([C@@](O)(CNC(=O)c1ccc(OC3CC3)c(-c3cnccn3)c1)C(F)(F)F)nc2-c1ccc(F)cc1 [Example 114]	–	< 200	> 500
C[C@]1(C(N)=O)COc2c1cc([C@@](O)(CNC(=O)c1ccc(OC3CC3)c(-c3ccncn3)c1)C(F)(F)F)nc2-c1ccc(F)cc1 [Example 116]	–	< 200	> 500
C[C@]1(C(N)=O)COc2c1cc([C@@](O)(CNC(=O)c1cc(OC3CC3)c3ncccc3c1)C(F)(F)F)nc2-c1ccccc1 [Example 228]	–	< 200	> 500
COc1cc(C(=O)NC[C@](O)(c2cc3c(c(-c4ccc(F)cc4)n2)OC[C@]3(C)C(=O)NC2COC2)C(F)(F)F)cc2cccnc12 [Example 52]	–	< 200	< 500
C[C@]1(C(N)=O)COc2c1cc([C@](O)(CNC(=O)c1cc(OC3CC3)c3ncccc3c1)C(F)(F)F)nc2-c1ccc(F)c(C#N)c1 [Example 84]	–	> 200	> 500
Cc1cc2cc(C(=O)NC[C@](O)(c3cc4c(c(-c5ccc(F)c(Cl)c5)n3)OC[C@]4(C)C(N)=O)C(F)(F)F)ccc2nn1 [Example 617]	–	< 200	< 500
COc1cc(C(=O)NC[C@](C)(O)c2cc3c(c(-c4ccc(F)cc4)n2)OC[C@]3(C)C(N)=O)cc2cccnc12 [Example 219]	–	< 200	> 500
C[C@]1(C(N)=O)COc2c1cc([C@](O)(CNC(=O)c1cc(OC3CC3)c3ncccc3c1)C(F)(F)F)nc2-c1ccc(C#N)cc1 [Example 83]	–	< 200	> 500
Cn1cc2cc(C(=O)NC[C@](O)(c3cc4c(c(-c5ccc(F)cc5)n3)OC[C@]4(C)C(=O)NCC(C)(C)O)C3CC3)ccc2n1 [Example 642]	–	< 200	> 500
Cc1cnc2c(NC(=O)c3ncco3)cc(C(=O)NC[C@](O)(c3cc4c(c(-c5ccc(F)cc5)n3)OC[C@]4(C)C(N)=O)C(F)(F)F)cc2c1 [Example 561]	–	< 200	< 500
Cc1cnc2ccc(C(=O)NC[C@](O)(c3cc4c(c(-c5ccc(F)cc5)n3)OC[C@]4(C)C(N)=O)C(F)(F)F)cc2c1 [Example 524]	–	< 200	< 500
C[C@]1(C(N)=O)COc2c1cc([C@@](O)(CNC(=O)c1cc(Cl)c3nc(N)sc3c1)C(F)(F)F)nc2-c1ccc(F)cc1 [Example 633]	–	< 200	< 500
C[C@]1(C(N)=O)COc2c1cc([C@@](O)(CNC(=O)c1cc(Nc3cccnc3)c3ncccc3c1)C(F)(F)F)nc2-c1ccc(F)cc1 [Example 339]	–	< 200	> 500
Cc1cnc2c(Nc3cncnc3)cc(C(=O)NC[C@](O)(c3cc4c(c(-c5ccc(F)cc5)n3)OC[C@]4(C)C(N)=O)C(F)(F)F)cc2c1 [Example 548]	–	< 200	> 500
COc1cc(C(=O)NC[C@](O)(c2cc3c(c(-c4ccc(F)cc4)n2)OC[C@]3(C)C(N)=O)C(F)(F)F)cc2cc(C)cnc12 [Example 255]	–	< 200	< 500
C[C@]1(C(N)=O)COc2c1cc([C@@](O)(CNC(=O)c1ccc(OC3CC3)c(-c3ncco3)c1)C(F)(F)F)nc2-c1ccc(F)cc1 [Example 124]	–	< 200	> 500
C[C@]1(C(N)=O)COc2c1cc([C@@](O)(CNC(=O)c1cc(OC(F)F)c3nc(N)sc3c1)C(F)(F)F)nc2-c1ccc(F)cc1 [Example 537]	–	< 200	> 500

Source: patent publication US11505558B1, “Antiviral heterocyclic compounds” (Enanta Pharmaceuticals, Inc., priority 2019, dated 2022)
